The subject of this data set is CCRIS mutagenicity, Ames/micronucleus/aberration tests. The experiment in a line: CCRIS mutagenicity studies.
[1] abbreviates: Test System: AMES SALMONELLA TYPHIMURIUM, Strain/Indicator: TA98, Metabolic Activation: NONE, Method: PREINCUBATION
Setting [2] is: Test System: AMES SALMONELLA TYPHIMURIUM, Strain/Indicator: TA100, Metabolic Activation: NONE, Method: PREINCUBATION

The structures appear in SMILES notation. The source made the active and inactive calls. No rule for the calls is given here.

Regarding `CCCN(CCC)C(=O)SCC`, the mutagenic call is, setting by setting: (End Point: In vitro chromosomal aberrations, Test System: Chinese hamster ovary (CHO) cells, Metabolic Activation: None) “inactive; negative”; (End Point: In vitro chromosomal aberrations, Test System: Chinese hamster ovary (CHO) cells, Metabolic Activation: Rat, Liver, S-9) “inactive; negative”; (End Point: In vitro chromosomal aberrations, Test System: Mouse lymphoma cells, Strain/Indicator: L5178Y (tk+/tk-), Metabolic Activation: None) “active; positive (structure and ploidy)”; (End Point: In vitro chromosomal aberrations, Test System: Mouse lymphoma cells, Strain/Indicator: L5178Y (tk+/tk-), Metabolic Activation: S-9) “inactive; negative”; (Test System: AMES SALMONELLA TYPHIMURIUM, Strain/Indicator: TA97, Metabolic Activation: HAMSTER, LIVER, S-9, AROCLOR 1254 (10 OR 30%), Method: PREINCUBATION) “inactive; negative”; (Test System: AMES SALMONELLA TYPHIMURIUM, Strain/Indicator: TA97, Metabolic Activation: NONE, Method: PREINCUBATION) “inactive; negative”. Besides, the mutagenic call by setting is: (Test System: AMES SALMONELLA TYPHIMURIUM, Strain/Indicator: TA97, Metabolic Activation: RAT, LIVER, S-9, AROCLOR 1254 (10 OR 30%), Method: PREINCUBATION) “inactive; negative”; (Test System: AMES SALMONELLA TYPHIMURIUM, Strain/Indicator: TA98, Metabolic Activation: HAMSTER, LIVER, S-9, AROCLOR 1254 (10%), Method: PREINCUBATION) “inactive; negative”; (Test System: AMES SALMONELLA TYPHIMURIUM, Strain/Indicator: TA98, Metabolic Activation: HAMSTER, LIVER, S-9, AROCLOR 1254 (30%), Method: PREINCUBATION) “inactive; negative”; under setting [1], “inactive; negative”; (Test System: AMES SALMONELLA TYPHIMURIUM, Strain/Indicator: TA98, Metabolic Activation: RAT, LIVER, S-9, AROCLOR 1254 (10%), Method: PREINCUBATION) “inactive; negative”; (Test System: AMES SALMONELLA TYPHIMURIUM, Strain/Indicator: TA98, Metabolic Activation: RAT, LIVER, S-9, AROCLOR 1254 (30%), Method: PREINCUBATION) “inactive; negative”. The mutagenic call reads like this: (Test System: AMES SALMONELLA TYPHIMURIUM, Strain/Indicator: TA100, Metabolic Activation: HAMSTER, LIVER, S-9, AROCLOR 1254 (10%), Method: PREINCUBATION) “inactive; negative”; (Test System: AMES SALMONELLA TYPHIMURIUM, Strain/Indicator: TA100, Metabolic Activation: HAMSTER, LIVER, S-9, AROCLOR 1254 (30%), Method: PREINCUBATION) “inactive; negative”; under setting [2], “inactive; negative”; (Test System: AMES SALMONELLA TYPHIMURIUM, Strain/Indicator: TA100, Metabolic Activation: RAT, LIVER, S-9, AROCLOR 1254 (10%), Method: PREINCUBATION) “inactive; negative”; (Test System: AMES SALMONELLA TYPHIMURIUM, Strain/Indicator: TA100, Metabolic Activation: RAT, LIVER, S-9, AROCLOR 1254 (30%), Method: PREINCUBATION) “inactive; negative”; (Test System: AMES SALMONELLA TYPHIMURIUM, Strain/Indicator: TA1535, Metabolic Activation: HAMSTER, LIVER, S-9, AROCLOR 1254 (10 OR 30%), Method: PREINCUBATION) “inactive; negative”. For the same compound, the mutagenic call was “inactive; negative” (Test System: AMES SALMONELLA TYPHIMURIUM, Strain/Indicator: TA1535, Metabolic Activation: NONE, Method: PREINCUBATION); “inactive; negative” (Test System: AMES SALMONELLA TYPHIMURIUM, Strain/Indicator: TA1535, Metabolic Activation: RAT, LIVER, S-9, AROCLOR 1254 (10 OR 30%), Method: PREINCUBATION); “inactive; negative” (Test System: AMES SALMONELLA TYPHIMURIUM, Strain/Indicator: TA1537, Metabolic Activation: HAMSTER, LIVER, S-9, AROCLOR 1254 (10 OR 30%), Method: PREINCUBATION); “inactive; negative” (Test System: AMES SALMONELLA TYPHIMURIUM, Strain/Indicator: TA1537, Metabolic Activation: NONE, Method: PREINCUBATION); “inactive; negative” (Test System: AMES SALMONELLA TYPHIMURIUM, Strain/Indicator: TA1537, Metabolic Activation: RAT, LIVER, S-9, AROCLOR 1254 (10 OR 30%), Method: PREINCUBATION); “inactive; negative. (cytotoxicity at doses of 1000 ug/plate and above.)” (Test System: Ames Salmonella typhimurium, Strain/Indicator: TA98, Metabolic Activation: None, Method: Plate incorporation amd preincubation (2 trials)). The mutagenic call is “inactive; negative. (cytotoxicity at doses of 1000 ug/plate and above.)” (Test System: Ames Salmonella typhimurium, Strain/Indicator: TA98, Metabolic Activation: Rat, Liver, S-9, Aroclor, Method: Plate incorporation); “inactive; negative. (cytotoxicity at doses of 1000 ug/plate and above.)” (Test System: Ames Salmonella typhimurium, Strain/Indicator: TA100, Metabolic Activation: None, Method: Plate incorporation amd preincubation (2 trials)); “inactive; negative. (cytotoxicity at doses of 1000 ug/plate and above.)” (Test System: Ames Salmonella typhimurium, Strain/Indicator: TA100, Metabolic Activation: Rat, Liver, S-9, Aroclor, Method: Plate incorporation); “inactive; negative. (cytotoxicity at doses of 1000 ug/plate and above.)” (Test System: Ames Salmonella typhimurium, Strain/Indicator: TA1535, Metabolic Activation: None, Method: Plate incorporation amd preincubation (2 trials)); “inactive; negative. (cytotoxicity at doses of 1000 ug/plate and above.)” (Test System: Ames Salmonella typhimurium, Strain/Indicator: TA1535, Metabolic Activation: Rat, Liver, S-9, Aroclor, Method: Plate incorporation); “inactive; negative. (cytotoxicity at doses of 1000 ug/plate and above.)” (Test System: Ames Salmonella typhimurium, Strain/Indicator: TA1537, Metabolic Activation: None, Method: Plate incorporation amd preincubation (2 trials)). The mutagenic call was “inactive; negative. (cytotoxicity at doses of 1000 ug/plate and above.)” (Test System: Ames Salmonella typhimurium, Strain/Indicator: TA1537, Metabolic Activation: Rat, Liver, S-9, Aroclor, Method: Plate incorporation); “inactive; negative. (cytotoxicity at doses of 1000 ug/plate and above.)” (Test System: E. coli, Strain/Indicator: WP2P/WP2P uvrA, Metabolic Activation: None, Method: Plate incorporation amd preincubation (2 trials)); “inactive; negative. (cytotoxicity at doses of 1000 ug/plate and above.)” (Test System: E. coli, Strain/Indicator: WP2P/WP2P uvrA, Metabolic Activation: Rat, Liver, S-9, Aroclor, Method: Plate incorporation); “active; positive” (Test System: Mouse lymphoma cells, Strain/Indicator: L5178Y (tk+/tk-), Metabolic Activation: None, Method: Not given by California Department of Pesticides Regulation); “active; positive” (Test System: Mouse lymphoma cells, Strain/Indicator: L5178Y (tk+/tk-), Metabolic Activation: Rat, Liver, S-9, Method: Not given by California Department of Pesticides Regulation); “inactive; negative” (Test System: UDS primary rat hepatocytes, Strain/Indicator: Thymidine incorporation, Method: Liquid scintillation counting).
For the compound `O=C(O)c1c(Cl)cccc1Cl`, the mutagenic call was “inactive; negative” under setting [1]; “inactive; negative” (Test System: AMES SALMONELLA TYPHIMURIUM, Strain/Indicator: TA98, Metabolic Activation: RAT LIVER S-9, PCB, Method: PREINCUBATION); “inactive; negative” under setting [2]; “inactive; negative” (Test System: AMES SALMONELLA TYPHIMURIUM, Strain/Indicator: TA100, Metabolic Activation: RAT LIVER S-9, PCB, Method: PREINCUBATION); “inactive; negative” (Test System: AMES SALMONELLA TYPHIMURIUM, Strain/Indicator: TA104, Metabolic Activation: NONE, Method: PREINCUBATION); “inactive; negative” (Test System: AMES SALMONELLA TYPHIMURIUM, Strain/Indicator: TA104, Metabolic Activation: RAT LIVER S-9, PCB, Method: PREINCUBATION). The mutagenic call is, setting by setting: (Test System: E.COLI, Strain/Indicator: WP2 UVRA, Metabolic Activation: NONE, Method: PREINCUBATION) “inactive; negative”; (Test System: E.COLI, Strain/Indicator: WP2 UVRA, Metabolic Activation: RAT LIVER S-9, PCB, Method: PREINCUBATION) “inactive; negative”.
For `CNc1nc2c3cccnc3ccc2n1C`, the mutagenic call is “active; positive” (Test System: AMES SALMONELLA TYPHIMURIUM, Strain/Indicator: TA98, Metabolic Activation: RAT, LIVER, S-9, AROCLOR 1254, Method: PREINCUBATION) and “active; positive” (Test System: AMES SALMONELLA TYPHIMURIUM, Strain/Indicator: TA100, Metabolic Activation: RAT, LIVER, S-9, AROCLOR 1254, Method: PREINCUBATION).
On to `CC(C)c1cc(-c2ccccc2)cc(C(C)C)c1N`, for which the mutagenic call is, setting by setting: (Test System: AMES SALMONELLA TYPHIMURIUM, Strain/Indicator: TA98, Metabolic Activation: NONE, Method: STANDARD PLATE) “inactive; negative”; (Test System: AMES SALMONELLA TYPHIMURIUM, Strain/Indicator: TA98, Metabolic Activation: RAT LIVER S-9, AROCLOR, Method: STANDARD PLATE) “inactive; negative”; (Test System: AMES SALMONELLA TYPHIMURIUM, Strain/Indicator: TA100, Metabolic Activation: NONE, Method: STANDARD PLATE) “inactive; negative”; (Test System: AMES SALMONELLA TYPHIMURIUM, Strain/Indicator: TA100, Metabolic Activation: RAT LIVER S-9, AROCLOR, Method: STANDARD PLATE) “inactive; negative”.
Take `O=[N+]([O-])c1cccc2c1-c1ccccc1C2`: the mutagenic call runs as follows: (End Point: IN VITRO CHROMOSOMAL ABERRATIONS, Test System: CHINESE HAMSTER LUNG (CHL) CELLS, Metabolic Activation: NONE) “active; positive”; (End Point: IN VITRO CHROMOSOMAL ABERRATIONS, Test System: CHINESE HAMSTER LUNG (CHL) CELLS, Metabolic Activation: RAT, LIVER, S-9, KC-400) “active; positive”.

The values above are taken from PubChem BioAssay AID1259407 (Chemical Carcinogenesis Research Information System (CCRIS), 2018).
